Assay results from PubChem BioAssay (NCI).
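Five concentrations, 48 hours, 96-well plates. GI50: concentration for 50% inhibition of growth. The concentration for full growth arrest is given as TGI.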

Assays:
Experiment in all cases: NCI tumour cell line growth inhibition, 48 h
[1] = system: SR leukemia
[2] = system: XF 498 CNS
[3] = system: DMS 273 small cell lung
[4] = system: M19-MEL melanoma
[5] = system: HOP-18 NSCLC
[6] = system: P388/ADR leukemia
[7] = system: HS 578T breast
[8] = system: PC-3 prostate
[9] = system: MDA-MB-231 breast
[10] = system: MDA-MB-435
[11] = system: T-47D breast

SMILES | TGI [1] [µM] | TGI [2] [µM] | GI50 [3] [µM] | TGI [3] [µM] | GI50 [4] [µM] | TGI [4] [µM] | TGI [5] [µM] | TGI [6] [µM] | TGI [7] [µM] | TGI [8] [µM] | TGI [9] [µM] | TGI [10] [µM] | TGI [11] [µM]
C/C(=N\NC(=O)c1ccccc1O)c1cccc(/C(C)=N/NC(=O)c2ccccc2O)n1.O=S(=O)([O-])[O-].[Fe+2] | > 100 | > 100 | 46.4 | > 100 | > 100 | > 100 |  |  |  |  |  |  | 
CC(C)C1NC(=O)CC(c2ccccc2)N(N=O)C1c1ccccc1 (configuration not stated) |  | > 100 |  | > 100 |  | > 100 | > 100 | > 100 |  |  |  |  | 
COc1cc(C2(c3ncc[nH]3)SSSCC2O)ccc1O (configuration not stated) |  | > 100 |  | > 100 |  | > 39.6 | > 100 | > 54.8 |  |  |  |  | 
Cc1c(N=C/C=C/c2ccccc2)c(=O)n(-c2ccccc2)n1C |  |  |  |  |  |  |  |  | 69.8 | > 100 | > 100 | > 100 | 62.4
Cc1cccc2sc(-c3ccc(O)cc3)nc12 | 47.3 |  |  |  |  |  |  |  |  | 31.7 | 38.7 | 26.8 | 
O=C(N/N=C/c1cc(Br)cc(Br)c1[O-])c1ccccc1O.O=C(N/N=C/c1cc(Br)cc(Br)c1[O-])c1ccccc1O.[Zn+2] | 4 |  |  |  |  |  |  |  |  |  |  |  | 
CCCCCCCCCOCC(COP(=O)([O-])OCC[N+](C)(C)C)OC (configuration not stated) |  | > 100 |  | > 100 |  | > 100 | > 100 | > 100 |  |  |  |  | 
NC1CCC(N(CC(=O)O)CC(=O)O)C(N(CC(=O)O)CC(=O)O)C1 (configuration not stated) | > 100 |  |  |  |  |  |  |  | > 100 | > 100 | > 100 | > 100 | > 100
CCOC(=O)/C(=N/Nc1ccccc1)N1C(=S)C=C(C)NN(C)C1=S | > 100 |  |  |  |  |  |  |  | > 100 |  | > 100 | > 100 | > 100
